Assays:
A549 = test: MTT test, cytotoxic effect; assay type: cell-based; details: Homo sapiens, 24 h treatment, 0.1 to 100 µM, concentration that causes 50% cell death
Experimental: (§1) At the first stage of biological testing, we studied the effect of the synthesized compounds on the survival of cells of both tumoral and normal origin. […] In our work, the cytotoxic profile of the synthesized molecules was assessed using the MTT test, based on the ability of a colorless tetrazolium salt (3-[4,5-dimethylthiazol-2-yl]-2,5-diphenyltetrazolium bromide, MTT) to be reduced to colored formazan in the presence of the mitochondrial enzymes of living cells. For this purpose, a number of cell lines of tumoral origin (SH-SY5Y, A549, MCF-7 and SW-480), as well as normal origin (Hek-293), were used.
(§2) For the experiments, we used tumor cell cultures SH-SY5Y, human neuroblast-like cells, A549, human lung adenocarcinoma, MCF-7, human mammary adenocarcinoma, SW-480 and human colorectal adenocarcinoma, as well as cells of normal origin obtained from human embryonic kidneys, Hek-293.
(§3) All cells were cultured in the Dulbecco Modified Eagle’s Medium (DMEM) with a high glucose content, 10% fetal bovine serum and 1% penicillin-streptomycin as an antibiotic, in a moist incubator with 5% CO2 at 37°C.
(§4) To measure cellular metabolic activity, a colorimetric analysis was performed using the MTT reagent (3-(4,5–dimethylthiazol-2-yl)-2,5-diphenyltetrazolium bromide), which is an inhibitor of viable cells [73, 74].
(§5) • Briefly, cells in the logarithmic growth phase were digested and resuspended to adjust the cell density. The cells were then seeded in 96-well plates at a density of 10,000 cells per well. After 24 h of the incubation of the cells under the standard conditions described above (for the purpose of cell adhesion), the cells were treated with the synthesized compounds at different concentrations (0.1 to 100 µM) or a vehicle alone as a control (1% DMSO) for 24 h. After the incubation time of the cells with synthesized compounds, 5 mg/mL of MTT was added to the cells and incubated for 2 h at 37 °C. Next, the supernatant was discarded; after that, the formazan crystals were dissolved in a DMSO and the absorbance of each well was measured at 570 nm using a multifunctional microplate reader, Cytation3 (Biotech Tools Inc., Winooski, USA).

SH-SY5Y = test: cells; details: Homo sapiens, 24 h, read-out: IC50 of the cytotoxic effect, SH-SY5Y
Experimental: as §1, §2, §3, §4, §5

SW-480 = test: MTT test, cytotoxic effect; assay type: cell-based; details: Homo sapiens, SW480, 24 h treatment, 0.1 to 100 µM, concentration that causes 50% cell death
Experimental: as §1, §2, §3, §4, §5

[1] = MTT test, cytotoxic effect on cells of normal origin; assay type: cell-based, human; details: human, Hek-293 cells (normal origin), 24 h treatment, 0.1 to 100 µM, normal cells, concentration that causes 50% cell death
Experimental: as §1, §2, §3, §4, §5

[2] = tested on: all the tested cell lines (SH-SY5Y, A549, MCF-7, SW-480, Hek-293); test: MTT test, summary over all tested cell lines; assay type: cell-based, human; details: MTT, range of concentrations studied (0.1 to 100 µM)
Experimental: as §1
(§6) For the experiments, we used tumor cell cultures SH-SY5Y, human neuroblast-like cells, A549, human lung adenocarcinoma, MCF-7, human mammary adenocarcinoma, SW-480 and human colorectal adenocarcinoma, as well as cells of normal origin obtained from human embryonic kidneys, Hek-293. The cell lines were obtained from the collection of the Institute of Cytology, Russian Academy of Sciences (St. Petersburg, Russia).
as §3, §4
(§7) • Briefly, cells in the logarithmic growth phase were digested and resuspended to adjust the cell density. The cells were then seeded in 96-well plates at a density of 10,000 cells per well. […] Next, the supernatant was discarded; after that, the formazan crystals were dissolved in a DMSO and the absorbance of each well was measured at 570 nm using a multifunctional microplate reader, Cytation3 (Biotech Tools Inc., Winooski, USA).

MCF-7 = test: MTT test, cytotoxic effect; assay type: cell-based; details: Homo sapiens, MCF7, 24 h treatment, 0.1 to 100 µM, concentration that causes 50% cell death
Experimental: as §1, §2, §3, §4, §5

A549 cells = test: Wound-healing assay (scratch test); assay type: cell-based, human; details: 1 μM; for migration capacity, decrease in the scratch width vs control: 24 h after the damage
Source text: It is also well known that migration and proliferation of cancer cells are key processes involved in the metastatic cascade of malignant neoplasms. In turn, the ability of therapeutic agents to inhibit these processes is considered a promising property of antitumor agents. In this regard, in order to assess the possible antimetastatic potential of cytotoxic diphenylamines 6b, c and d, we analyzed the effect of the substances on the migration and proliferation of tumor cells A549 in a scratch test.
Based on a preliminary series of experiments, 1 μM was chosen as the concentration used in this test, excluding the intrinsic cytotoxic effect of the substances. […] Thus, the data obtained 24 h after the damage was applied allowed us to evaluate the migration capacity of the cells, minimizing the contribution of cell proliferation.
The migration activity of A549 cells was determined by the wound-healing assay (scratch test). To do this, cells (15,000 cells per well) were seeded in a 96-well plate and cultured under the standard conditions described above. After 24 h of incubation, when the cells became 90% confluent, the medium was selected and an identical scratch wound across the center of each well was made by a 200 µL pipette tip.
To remove detached cells, the cell monolayer was washed twice with PBS; after that, the growth media and test compounds at 1 µM (or 1% DMSO as a solvent) were added to each well. A phase contrast microscope at a ×40 magnification was used to take photomicrographs after making the wound and then 24 h, 48 h and 72 h later.
The analysis of the obtained images was calculated using the open-source program ImageJ [80] and a special module: Wound_healing_size_tool.

[3] = tested on: Fe(II)-induced lipid peroxidation (LPO) of rat brain homogenate; test: Fe(II)-induced lipid peroxidation, modified TBARS test; assay type: biochemical; details: Fe(II) 500 μM, rat brain homogenate 2 mg/mL; for IC50: 1 to 300 μM, read-out: IC50 of the lipid peroxidation inhibitory effect; for decrease in the level of malondialdehyde: compounds at 100 μM
Experimental: In our work, the antioxidant status of the compounds was determined by their ability to influence the process of Fe(II)-induced lipid peroxidation (LPO) of rat brain homogenate (2 mg/mL). The effect of the substances on LPO was studied using a modified version of the TBA test in a plate format. This test is based on the reaction of 2-thiobarbituric acid with intermediate LPO products, resulting in the formation of a colored trimethine complex, the main role in the formation of which belongs to malondialdehyde. […] This was expressed in a decrease in the level of malondialdehyde in the system by 70, 79 and 71%, respectively, tending to the values of the well-known antioxidant Trolox. Additionally, the IC50 values of the lipid peroxidation inhibitory effect were calculated for these molecules, the values of which are presented in Figure 2B.
To obtain rat brain homogenate, an animal previously anesthetized in a CO2 chamber was decapitated using a guillotine. The brain was homogenized in a buffer containing KCl (120 mM) and HEPES (20 mM), pH = 7.4 at 4 ° C and centrifuged at 1500 g to obtain a supernatant.
The intensity of the lipid peroxidation of the rat brain homogenate was evaluated using a modified TBARS test. […] In the wells of the negative control, the Fe(II) was replaced with water; in samples with a positive control, a solvent was introduced instead of the studied compounds.
At the end of incubation, a TBA reagent ([…] thiobartituric and 1% trichloroacetic acids dissolved in 0.25 N HCl) was added to each well and heated at 90 °C for 90 min.

[4] = MTT test, summary over all tested cell lines; assay type: cell-based, human; details: human; all cells, including those of normal origin, Hek-293; read-out: IC50 values of the cytotoxic effect, range over all cells
Experimental: as §1, §6, §3, §4, §7

melting point	IC50 [3]	SMILES	IC50 (A549)	IC50 (SH-SY5Y)	IC50 (SW-480)	IC50 at 24 h [1]	toxic effect on the tested cell lines [2]	IC50 (MCF-7)	unhealed defect area remaining from the original vs control (A549 cells; 48 and 72 h)	migration capacity, decrease in the scratch width vs control (A549 cells)	proliferation coefficient of cells vs control (A549 cells; A549)	decrease in the level of malondialdehyde [3]	IC50 at 24 h [4]
205 to 207 °C		Nc1cc(C(F)(F)F)ccc1Nc1cc(C(F)(F)F)ccc1-n1cnc2ccccc21 [6a, N-[2-(1H-benzimidazol-1-yl)-5-(trifluoromethyl)phenyl]-2-amino-4-(trifluoromethyl)aniline]	≥ 100 µM	≥ 100 µM	≥ 100 µM	≥ 100 µM	not toxic	≥ 100 µM					
170 to 173 °C	1680 ± 80 nM	Nc1cc(C(F)(F)F)ccc1Nc1cc(C(F)(F)F)ccc1-n1nnc2ccccc21 [6b, N-[2-(1H-benzotriazol-1-yl)-5-(trifluoromethyl)phenyl]-2-amino-4-(trifluoromethyl)aniline]	26.28 ± 0.02 µM	25.98 ± 0.17 µM	25.09 ± 0.24 µM	22.4 ± 0.41 µM		23.29 ± 0.12 µM	significantly increase	did not find any differences	significant decrease	70%	22 to 26 µM
191 to 194 °C	2400 ± 50 nM	Nc1cc(C(F)(F)F)ccc1Nc1cc(Cl)ccc1-n1nnc2ccccc21 [6d, N-[2-(1H-benzotriazol-1-yl)-5-chlorophenyl]-2-amino-4-(trifluoromethyl)aniline]	41.4 ± 0.79 µM	31.56 ± 0.07 µM	40.38 ± 0.01 µM	41.39 ± 0.05 µM		33.8 ± 0.64 µM		did not find any differences		71%	31 to 41 µM

Reference: article PMC11596563, “N-Aryl Benzimidazole and Benzotriazole Derivatives and Their Hybrids as Cytotoxic Agents: Design, Synthesis and Structure–Activity Relationship Studies” (Molecules, 2024)
